Organism: Rattus norvegicus
Assay: DrugMatrix - Regimen: Daily Repeat
Assay type: toxicity, organism-based, Sprague-Dawley
Parameters: regimen Daily Repeat, gender Male, age 6-8 weeks
Settings: in vivo, po, route oral GAVAGE, […]; for ABSOLUTE BASOPHIL / ABSOLUTE EOSINOPHIL / ABSOLUTE LYMPHOCYTE / ABSOLUTE MONOCYTE / ABSOLUTE SEGMENTED NEUTROPHIL / BASOPHIL / EOSINOPHIL / ERYTHROCYTE COUNT / HEMATOCRIT / HEMOGLOBIN / LEUKOCYTE COUNT / LYMPHOCYTE / MEAN CORPUSCULAR HEMOGLOBIN / MEAN CORPUSCULAR HEMOGLOBIN CONCENTRATION / MEAN CORPUSCULAR VOLUME / MONOCYTE / NEUTROPHIL / NUCLEATED RED BLOOD CELLS / PLATELET COUNT: tissue Blood; for ALANINE AMINOTRANSFERASE / ALBUMIN / ALKALINE PHOSPHATASE / ASPARTATE AMINOTRANSFERASE / BLOOD UREA NITROGEN / CARBON DIOXIDE / CHLORIDE / CHOLESTEROL / CREATINE PHOSPHOKINASE / CREATININE / GLUCOSE / LACTATE DEHYDROGENASE / LIPASE / PHOSPHORUS / POTASSIUM / SODIUM / TOTAL BILIRUBIN / TOTAL PROTEIN / URIC ACID: tissue Plasma
[1] = 0 mg/kg, 72 h, dose level Control, time 3 day
[2] = 0 mg/kg, dose level Control, time 7 day
[3] = 400 mg/kg, 72 h, dose level Low, time 3 day

## ClC(Cl)(Cl)Cl [CARBON TETRACHLORIDE]
[1]
  ABSOLUTE BASOPHIL: 0 CELLS/uL
  ABSOLUTE EOSINOPHIL: 47.5 CELLS/uL
  ABSOLUTE LYMPHOCYTE: 9600.67 CELLS/uL
  ABSOLUTE MONOCYTE: 195.5 CELLS/uL
  ABSOLUTE SEGMENTED NEUTROPHIL: 839.67 CELLS/uL
  BASOPHIL: 0%
  EOSINOPHIL: 0.5%
  ERYTHROCYTE COUNT: 5.26 x10E6/uL
  HEMATOCRIT: 34.48%
  HEMOGLOBIN: 12.77 G/DL
  LEUKOCYTE COUNT: 10.68 x10E3/uL
  LYMPHOCYTE: 89.67%
  MEAN CORPUSCULAR HEMOGLOBIN: 24.3 pg
  MEAN CORPUSCULAR HEMOGLOBIN CONCENTRATION: 37.05 G/DL
  MEAN CORPUSCULAR VOLUME: 65.62 fL
  MONOCYTE: 1.83%
  NEUTROPHIL: 8%
  NUCLEATED RED BLOOD CELLS: 0.17 /100WBC
  PLATELET COUNT: 1038.67 x10E3/uL
  ALANINE AMINOTRANSFERASE: 65.17 u/L
  ALBUMIN: 4.2 G/DL
  ALKALINE PHOSPHATASE: 377.5 u/L
  ASPARTATE AMINOTRANSFERASE: 90.5 u/L
  BLOOD UREA NITROGEN: 13.5 mg/dL
  CARBON DIOXIDE: 31.17 mmol/L
  CHLORIDE: 98.33 MEQ/L
  CHOLESTEROL: 66.33 mg/dL
  CREATINE PHOSPHOKINASE: 478.83 u/L
  CREATININE: 0.19 mg/dL
  GLUCOSE: 155.17 mg/dL
  LACTATE DEHYDROGENASE: 107.5 u/L
  LIPASE: 10.33 u/L
  PHOSPHORUS: 9.25 mg/dL
  POTASSIUM: 5.43 MEQ/L
  SODIUM: 142.05 MEQ/L
  TOTAL BILIRUBIN: 0.12 mg/dL
  TOTAL PROTEIN: 5.95 G/DL
  URIC ACID: 0.62 mg/dL
[2]
  ABSOLUTE BASOPHIL: 0 CELLS/uL
  ABSOLUTE EOSINOPHIL: 43.5 CELLS/uL
  ABSOLUTE LYMPHOCYTE: 9369.83 CELLS/uL
  ABSOLUTE MONOCYTE: 196.17 CELLS/uL
  ABSOLUTE SEGMENTED NEUTROPHIL: 723.83 CELLS/uL
  BASOPHIL: 0%
  EOSINOPHIL: 0.5%
  ERYTHROCYTE COUNT: 5.09 x10E6/uL
  HEMATOCRIT: 32.42%
  HEMOGLOBIN: 13.1 G/DL
  LEUKOCYTE COUNT: 10.33 x10E3/uL
  LYMPHOCYTE: 90.83%
  MEAN CORPUSCULAR HEMOGLOBIN: 25.75 pg
  MEAN CORPUSCULAR HEMOGLOBIN CONCENTRATION: 40.43 G/DL
  MEAN CORPUSCULAR VOLUME: 63.62 fL
  MONOCYTE: 1.67%
  NEUTROPHIL: 7%
  NUCLEATED RED BLOOD CELLS: 0 /100WBC
  PLATELET COUNT: 1106.5 x10E3/uL
  ALANINE AMINOTRANSFERASE: 48.67 u/L
  ALBUMIN: 4.13 G/DL
  ALKALINE PHOSPHATASE: 275.17 u/L
  ASPARTATE AMINOTRANSFERASE: 73.17 u/L
  BLOOD UREA NITROGEN: 13.17 mg/dL
  CARBON DIOXIDE: 27.5 mmol/L
  CHLORIDE: 99.67 MEQ/L
  CHOLESTEROL: 60.83 mg/dL
  CREATINE PHOSPHOKINASE: 213 u/L
  CREATININE: 0.2 mg/dL
  GLUCOSE: 166.67 mg/dL
  LACTATE DEHYDROGENASE: 94.5 u/L
  LIPASE: 10.5 u/L
  PHOSPHORUS: 9.98 mg/dL
  POTASSIUM: 5.3 MEQ/L
  SODIUM: 140.77 MEQ/L
  TOTAL BILIRUBIN: 0.15 mg/dL
  TOTAL PROTEIN: 5.88 G/DL
  URIC ACID: 0.82 mg/dL
[3]
  ABSOLUTE BASOPHIL: 0 CELLS/uL
  ABSOLUTE EOSINOPHIL: 68.67 CELLS/uL
  ABSOLUTE LYMPHOCYTE: 9955.17 CELLS/uL
  ABSOLUTE MONOCYTE: 295.83 CELLS/uL
  ABSOLUTE SEGMENTED NEUTROPHIL: 1063.67 CELLS/uL
  BASOPHIL: 0%
  EOSINOPHIL: 0.67%
  ERYTHROCYTE COUNT: 5.78 x10E6/uL
  HEMATOCRIT: 36.52%
  HEMOGLOBIN: 13.38 G/DL
  LEUKOCYTE COUNT: 11.38 x10E3/uL
  LYMPHOCYTE: 87.5%
  MEAN CORPUSCULAR HEMOGLOBIN: 23.22 pg
  MEAN CORPUSCULAR HEMOGLOBIN CONCENTRATION: 36.7 G/DL
  MEAN CORPUSCULAR VOLUME: 63.22 fL
  MONOCYTE: 2.67%
  NEUTROPHIL: 9.17%
  NUCLEATED RED BLOOD CELLS: 0 /100WBC
  PLATELET COUNT: 836.5 x10E3/uL
  ALANINE AMINOTRANSFERASE: 112.17 u/L
  ALBUMIN: 3.92 G/DL
  ALKALINE PHOSPHATASE: 474.67 u/L
  ASPARTATE AMINOTRANSFERASE: 154.33 u/L
  BLOOD UREA NITROGEN: 15.5 mg/dL
  CARBON DIOXIDE: 31.67 mmol/L
  CHLORIDE: 101 MEQ/L
  CHOLESTEROL: 43.17 mg/dL
  CREATINE PHOSPHOKINASE: 313.5 u/L
  CREATININE: 0.21 mg/dL
  GLUCOSE: 143.17 mg/dL
  LACTATE DEHYDROGENASE: 105 u/L
  LIPASE: 12 u/L
  PHOSPHORUS: 9.75 mg/dL
  POTASSIUM: 5.51 MEQ/L
  SODIUM: 145.37 MEQ/L
  TOTAL BILIRUBIN: 0.1 mg/dL
  TOTAL PROTEIN: 5.6 G/DL
  URIC ACID: 0.52 mg/dL

From ChEMBL document CHEMBL3885881, “DrugMatrix”
